According to patent US20220226392A1, “COMPOSITIONS AND PROCESS FOR INTEGRATING CELLS INTO EPITHELIUM” (Medizinische Hochschule Hannover, priority 2019, published 2022):

Legend:
[1] = test system: human umbilical vein endothelial cells; settings: 10 nM 17β-estradiol; cited from earlier work
[2] = test system: human primary venous endothelial cells; assay: Loosening and regeneration of a confluent endothelial cell monolayer after contact with 17β-estradiol (phase contrast, anti-VE-cadherin and DAPI staining); format: cell-based
Protocol: As an example for an endothelium, human primary venous endothelial cells were cultivated in EGM-medium under cell culture conditions until reaching confluence. Then, the medium was removed from this exemplary epithelium and replaced by fresh EGM-medium containing 17β-estradiol in a concentration of 1 μM, 10 μM, 30 μM, 100 μM, or 300 μM. The concentrations of 17β-estradiol are also indicated in the rows of FIG. 1. […] Subsequent to the presence of the 17β-estradiol in medium, this first composition was removed and replaced by EGM-medium without added 17β-estradiol, with subsequent incubation for 4 h under cell culture conditions. The result is depicted in FIG. 1 in column C in phase contrast, and in column D after immunological staining for VE-cadherin as an essential component of adherens junctions between cells, and DAPI staining for nuclei.

[3] = test system: uterine human microvascular endothelial cells; settings: 10 nM 17β-estradiol; cited from earlier work
[4] = test system: human primary venous endothelial cells; assay: Integration of suspended eGFP-expressing iPSC-derived endothelial cells into an endothelial cell layer pre-treated with 17β-estradiol; format: cell-based
Protocol: A confluent layer of human primary venous endothelial cells cultivated in EGM-medium was used as a representative for endothelium. This endothelial cell layer was contacted with a first composition containing 17β-estradiol in a concentration yielding 100 μM 17β-estradiol in fresh cell culture medium. After incubating this endothelial cell layer under cell culture conditions for 30 min in the presence of 100 μM 17β-estradiol, the medium was removed and replaced by a suspension of iPSC-derived endothelial cells that were genetically manipulated to constitutively express enhanced green fluorescent green protein (eGFP) in EGM-medium without added 17β-estradiol.

Compound: C[C@]12CC[C@@H]3c4ccc(O)cc4CC[C@H]3[C@@H]1CC[C@@H]2O [17β-estradiol]
- permeability for FITC-labelled dextran of monolayer [1]: increases the permeability
- concentration at which the endothelial layer was loosened, respectively shows disintegration ([2]; 30 min in EGM-medium, tested 1, 10, 30, 100, 300 μM, FIG. 1 columns A, B): at least 10 μM
- state of the endothelial layer after removal of 17β-estradiol ([2]; 4 h incubation in EGM-medium without 17β-estradiol after 30 min exposure, VE-cadherin and DAPI staining, FIG. 1 columns C, D): a closed layer of the endothelial cells is re-established
- permeability for FITC-labelled dextran of monolayer [3]: increases the permeability
- integration of eGFP-labelled endothelial cells of the suspension into the endothelial layer ([4]; 100 μM 17β-estradiol for 30 min, then 4 h incubation with cell suspension without 17β-estradiol, FIG. 2 column B): efficiently integrate between the original endothelial cells
- effect on endothelial cell layer and VE-cadherin expression ([4]; 100 μM 17β-estradiol, 30 min, FIG. 2 column A): loosening of the cell layer and loss of VE-cadherin expression
